Measured values from ChEMBL document CHEMBL3751705, “Synthesis and antituberculosis activity of indole-pyridine derived hydrazides, hydrazide-hydrazones, and thiosemicarbazones” (Bioorg Med Chem Lett, 2016).
In brackets after ≈: the same amount, converted by molar mass. Activity calls are given as the source filed them. The rule behind the calls is not given here.

What was measured:
[1] = system: Mycobacterium tuberculosis; assay: Antituberculosis activity against isoniazid-sensitive Mycobacterium tuberculosis H37Rv by microdilution method; type: functional
[2] = Cytotoxicity against C57BL/6 mouse peritoneal macrophages assessed as cell viability by lactate dehydrogenase release assay; type: cell-based; conditions: C57BL/6, Peritoneal macrophage cell
[3] = Selectivity index, ratio of IC50 for C57BL/6 mouse peritoneal macrophages to MIC for Mycobacterium tuberculosis H37Rv

Compound | MIC [1] | IC50 [2] [µg/mL] | Selectivity Index [3]
NNC(=O)c1cccnc1 [NICOTINIC ACID HYDRAZIDE] | 5 µg/mL (≈ 36.5 µM) |  | 
CCOC(=O)c1[nH]c2ccc(Cl)cc2c1/C=N\NC(=O)c1ccncc1 | 0.1 µg/mL (≈ 0.27 µM) |  | 
O=C(N/N=C\c1c[nH]c2ccccc12)c1cc[n+]([O-])cc1 | 1 µg/mL (≈ 3.57 µM) | 30 (≈ 107 µM) | 30
CCOC(=O)c1[nH]c2ccc(C)cc2c1/C=N/NC(N)=S | 2 µg/mL (≈ 6.57 µM) |  | 
CCOC(=O)c1[nH]c2ccccc2c1/C=N\NC(=O)c1cc[n+]([O-])cc1 | 2 µg/mL (≈ 5.68 µM) | 18 (≈ 51.1 µM) | 9
CCOC(=O)c1[nH]c2ccc(C)cc2c1/C=N\NC(=O)c1ccncc1 | 0.05 µg/mL (≈ 0.143 µM) | 15 (≈ 42.8 µM) | 300
NC(=S)N/N=C/c1c(C(=O)O)[nH]c2ccc(Cl)cc12 | 10 µg/mL (≈ 33.7 µM) |  | 
CC(=O)n1cc(N(NC(=O)c2ccncc2)C(=O)Nc2ccc(Cl)cc2)c2ccccc21 | inactive |  | 
CCOC(=O)c1[nH]c2ccccc2c1CN(NC(=O)c1ccncc1)C(=O)Nc1ccc(Cl)cc1 | inactive |  | 
CC(=O)n1cc(NNC(=O)c2ccc[n+]([O-])c2)c2ccccc21 | 2 µg/mL (≈ 6.45 µM) | 17 (≈ 54.8 µM) | 
O=C(N/N=C\c1c[nH]c2ccccc12)c1ccncc1 | 0.1 µg/mL (≈ 0.378 µM) | 40 (≈ 151 µM) | 400
CC(=O)n1cc(NNC(=O)c2ccncc2)c2ccccc21 | 0.2 µg/mL (≈ 0.68 µM) | 50 (≈ 170 µM) | 250
O=C(NNCc1c[nH]c2ccccc12)c1ccncc1 | 0.1 µg/mL (≈ 0.376 µM) | 15 (≈ 56.3 µM) | 150
Cc1ccc2[nH]c(C(=O)O)c(/C=N/NC(N)=S)c2c1 | > 10 µg/mL |  | 
CC(=O)n1cc(NNC(=O)c2cc[n+]([O-])cc2)c2ccccc21 | 2 µg/mL (≈ 6.45 µM) |  | 
COc1ccc2[nH]c(C(=O)O)c(/C=N/NC(N)=S)c2c1 | > 10 µg/mL |  | 

Compound | MIC [1] | IC50 [2] [µg/mL] | Selectivity Index [3]
CCOC(=O)c1[nH]c2ccccc2c1CN(NC(=O)c1ccncc1)C(=O)c1ccncc1 | inactive |  | 
NNC(=O)c1cc[n+]([O-])cc1 | 5.2 µg/mL (≈ 34 µM) | 60 (≈ 392 µM) | 11.5
CCOC(=O)c1[nH]c2ccc(OC)cc2c1/C=N/NC(N)=S | > 10 µg/mL |  | 
NC(=S)N/N=C/c1c(C(=O)O)[nH]c2ccccc12 | > 10 µg/mL |  | 
NNC(=O)c1ccc[n+]([O-])c1 | > 10 µg/mL |  | 
CC(=O)N1C/C(=N\NC(N)=S)c2ccccc21 | > 10 µg/mL |  | 
Cc1ccc2[nH]c(C(=O)O)c(/C=N\NC(=O)c3ccncc3)c2c1 | 0.1 µg/mL (≈ 0.31 µM) | 25 (≈ 77.6 µM) | 250
CCOC(=O)c1[nH]c2ccc(Br)cc2c1CNNC(=O)c1ccncc1 | 10 µg/mL (≈ 24 µM) |  | 
NNC(=O)c1ccncc1 [ISONIAZID] | 0.06 µg/mL (≈ 0.438 µM) | > 100 | >1666
CCOC(=O)c1[nH]c2ccccc2c1CNNC(=O)c1cc[n+]([O-])cc1 | 2 µg/mL (≈ 5.64 µM) | 16 (≈ 45.2 µM) | 8
CCOC(=O)c1[nH]c2ccccc2c1CNNC(=O)C1CCNCC1.CS(=O)(=O)O | 20 µg/mL |  | 
CCOC(=O)c1[nH]c2ccccc2c1/C=N\NC(=O)c1ccncc1 | 0.15 µg/mL (≈ 0.446 µM) | 16 (≈ 47.6 µM) | 106.6
CC(=O)n1cc(NNC(=O)c2cccnc2)c2ccccc21 | 20 µg/mL (≈ 68 µM) |  | 
CCOC(=O)c1[nH]c2ccc(C)cc2c1CNNC(=O)c1ccncc1 | 0.2 µg/mL (≈ 0.568 µM) |  | 
CCOC(=O)c1[nH]c2ccc(Cl)cc2c1CNNC(=O)c1ccncc1 | 0.2 µg/mL (≈ 0.536 µM) |  | 
CCOC(=O)c1[nH]c2ccccc2c1CNNC(=O)c1ccncc1 | 0.2 µg/mL (≈ 0.591 µM) |  | 
